Measured values as given in patent US4265884A, “Therapeutically active polypeptides or acid addition salts thereof and a process for producing such compounds” (Nordisk Insulinlaboratorium, priority 1978, dated 1981).
Where a SMILES comes first, the peptide text is derived from it.

Tests used:
Langerhans's islets = assay: In vitro glucose stimulated insulin secretion from isolated Langerhans's islets; assay type: cell-based; conditions: for glucose stimulated insulin secretion, percentage of the effect of 10 mmolar glucose alone: hydrochloride, with 10 mM glucose, isolated islets preincubated 24 hours at 37° C
Procedure: In vitro determination of the effect or the peptides on the glucose stimulated insulin secretion was carried out on Langerhans's islets isolated by collagenase technique and preincubated 24 hours at 37° C. Secretion tests were conducted with 10 mM of glucose and three peptide concentrations.
All peptides have been tested in the form of their hydrochlorides together with 10 mmolar glucose, and the value is calculated as a percentage of the effect of 10 mmolar glucose alone.

[1] = pharmacological dosages; cited from earlier work

Row | Compound | glucose stimulated insulin secretion, percentage of the effect of 10 mmolar glucose alone (Langerhans's islets; peptide 5mM) [%] | glucose stimulated insulin secretion, percentage of the effect of 10 mmolar glucose alone (Langerhans's islets; peptide 5 × 10^-1 mM) [%] | glucose stimulated insulin secretion, percentage of the effect of 10 mmolar glucose alone (Langerhans's islets; peptide 5 × 10^-2 mM) [%] | blood sugar level [1] | secretion of insulin [1] | effect on insulin liberation from isolated Langerhans's islets (in words) (Langerhans's islets; same in vitro conditions as for the present peptides)
1 | COC(=O)[C@H](CC(C)C)NC(=O)[C@H](CCCNC(=N)N)NC(=O)[C@@H](N)CCC(N)=O [Peptide 1, glnargleuOMe, 2HCl] (H-Gln-Arg-Leu-OMe) | 151 | 113 | 144 | – | – | –
2 | COC(=O)[C@H](CC(C)C)NC(=O)[C@H](CCCNC(=N)N)NC(=O)[C@H](CCC(N)=O)NC(=O)[C@H](CC(C)C)NC(=O)[C@H](CCCNC(=N)N)NC(=O)[C@H](C)NC(=O)[C@H](CO)NC(=O)[C@@H](N)CC(=O)O [Peptide 6, aspseralaargleuglnargleuOMe, 3HCl] (H-DSARLQRL-OMe) | 142 | 110 | – | – | – | –
3 | COC(=O)[C@H](CC(C)C)NC(=O)[C@H](CCCNC(=N)N)NC(=O)[C@H](CCC(N)=O)NC(=O)[C@H](CC(C)C)NC(=O)[C@H](CCCNC(=N)N)NC(=O)[C@H](C)NC(=O)[C@@H](N)CO [Peptide 5, seralaargleuglnargleuOMe, 3HCl] (H-SARLQRL-OMe) | 268 | 140 | – | – | – | –
4 | COC(=O)[C@H](CC(C)C)NC(=O)[C@H](CCCNC(=N)N)NC(=O)[C@H](CCC(N)=O)NC(=O)[C@H](CC(C)C)NC(=O)[C@@H](N)CCCNC(=N)N [Peptide 4, argleuglnargleuOMe, 3HCl] (H-RLQRL-OMe) | 153 | 120 | 135 | – | – | –
5 | COC(=O)[C@H](CC(C)C)NC(=O)[C@H](CCCNC(=N)N)NC(=O)[C@H](CCC(N)=O)NC(=O)[C@@H](N)CC(C)C [Peptide 3, leuglnargleuOMe, 2HCl] (H-LQRL-OMe) | 240 | 127 | 124 | – | – | –
6 | secretin | – | – | – | without affecting the blood sugar level | potentiate the secretion of insulin | not been possible to make secretin affect the insulin liberation
